Experimental data: patent US11952610B2, “Digital microbiology” (priority 2016, dated 2024)
In brackets after ≈: the same amount, converted by molar mass. Entries after “also recorded” stand apart in the source; their conditions may differ. Where two headings read alike, the source gives them in different places.

Assays:
[1] = tested on: Penicillium hirsutum ATCC 16025; experiment: Inhibition of mold growth outside the droplet aqueous phase, antifungal in oil phase; type: cell-based; conditions: 0.5 mg/L in the oil phase, 48 hours
C. albicans ATCC®24433™ [2] = conditions: cited from earlier work
C. albicans ATCC®24433™ [3] = experiment: Antifungal susceptibility testing in water-in-oil droplets, microscope reading; type: cell-based, Candida albicans
Description: (§1) (at 30° C. for the C. albicans).

E. coli ATCC®25922 = conditions: cited from earlier work
[4] = tested on: Escherichia coli (ATCC®25922™); experiment: Antimicrobial susceptibility testing in water-in-oil droplets, microscope reading; type: cell-based; conditions: for MIC: Escherichia coli
Description: as §1

[5] = tested on: Aspergillus restrictus CECT 20807; experiment: Inhibition of mold growth outside the droplet aqueous phase, antifungal in oil phase; type: cell-based; conditions: 150 mg/L in the oil phase, 48 hours
MSSA ATCC 29213 = experiment: Droplets with labeled fibrinogen, BSA +/- cefoxitin: growth and labeling; type: cell-based, Staphylococcus aureus
Description: (§2) Fibrinogen (Sigma Aldrich) that binds to Staphylococcus aureus (S. aureus cells express surface proteins that promote attachment to host proteins such as fibronectin) was labeled using Kit Lynx LNK174PETR (Abd Serotec). […] After incubation at 37° C. for 3 hours, the samples were read using the ZOE™ Fluorescent Cell Imager (Bio-Rad Laboratories). The tables below show growth (visible) and labeling (fluorescence) obtained for the tested strains of MSSA and MRSA.

MSSA ATCC 6538 = experiment: as above; type: cell-based, Staphylococcus aureus
Description: as §2

MRSA ATCC 49476 = experiment: as above; type: cell-based, Staphylococcus aureus
Description: as §2

MRSA ATCC BAA 2312 = experiment: as above; type: cell-based, Staphylococcus aureus
Description: as §2

[6] = ATCC25922, droplets at 37° C., read after 4 and/or 6 h, read-out: Observed MIC
[7] = droplets at 37° C., read after 4 and/or 6 h
[8] = conjugate 1/200, BSA 0 + FOX 0, 3 h at 37° C.
[9] = conjugate 1/200, BSA 0 + FOX 2 mg/L, 3 h at 37° C.
[10] = conjugate 1/200, BSA 2.5% + FOX 0, 3 h at 37° C.
[11] = conjugate 1/200, BSA 2.5% + FOX 2 mg/L, 3 h at 37° C.

C=CCOC(Cn1ccnc1)c1ccc(Cl)cc1Cl (racemic) [Imazalil, (RS)-1-[2-(allyloxy)-2-(2,4-dichlorophenyl)ethyl]-1H-imidazole]
Mold growth outside the aqueous phase [1]: the hyphae spreading was inhibited and mold growth was confined within the droplet; also recorded: inhibition of mold growth outside the aqueous phase

C[C@@H]1[C@H](O)[C@@H](C)/C=C/C=C/C=C/C=C/C=C/C=C/C=C/[C@H](O[C@@H]2O[C@H](C)[C@@H](O)[C@H](N)[C@@H]2O)C[C@@H]2O[C@](O)(C[C@@H](O)C[C@@H](O)[C@H](O)CC[C@@H](O)C[C@@H](O)CC(=O)O[C@H]1C)C[C@H](O)[C@H]2C(=O)O [Amphotericin B]
Expected MIC (CLSI) (C. albicans ATCC®24433™ [2]): 0.25 to 1 µg/mL | Growth in % of droplets (C. albicans ATCC®24433™ [3]; 0.125 mg/L, reading time 4 h): 15-20% of | Growth in % of droplets (C. albicans ATCC®24433™ [3]; 0.25 mg/L, reading time 4 h): 15-20% of | Growth in % of droplets (C. albicans ATCC®24433™ [3]; 0.25 mg/L, reading time 6 h): 30-40% of the | Growth in droplets (observation in words) (C. albicans ATCC®24433™ [3]; 0.25 mg/L, reading time 24 h): Full growth | Growth in % of droplets (C. albicans ATCC®24433™ [3]; 0.5 mg/L, reading time 4 h): 15-20% of | Growth in % of droplets (C. albicans ATCC®24433™ [3]; 0.5 mg/L, reading time 6 h): ~30% of | Growth in % of droplets (C. albicans ATCC®24433™ [3]; 0.5 mg/L, reading time 24 h): ~20% of | Growth in droplets (observation in words) (C. albicans ATCC®24433™ [3]; 1 mg/L, reading time 4 h): Limited | Growth in droplets (observation in words) (C. albicans ATCC®24433™ [3]; 1 mg/L, reading time 6 h): Limited | Growth in droplets (observation in words) (C. albicans ATCC®24433™ [3]; 1 mg/L, reading time 24 h): Limited | Growth in droplets (observation in words) (C. albicans ATCC®24433™ [3]; 2 mg/L, reading time 6 h): Limited | Growth in droplets (observation in words) (C. albicans ATCC®24433™ [3]; 2 mg/L, reading time 24 h): Limited | Growth in droplets (observation in words) (C. albicans ATCC®24433™ [3]; 8 mg/L, reading time 24 h): 1-2 cells | Observed MIC (C. albicans ATCC®24433™ [3]; droplets at 30° C., read after 4, 6 (24) h): 2 to 4 µg/mL

O=C(N[C@H](CO)[C@H](O)c1ccc([N+](=O)[O-])cc1)C(Cl)Cl [Chloramphenicol]
Expected MIC (CLSI) (E. coli ATCC®25922): 2 to 8 µg/mL | Growth in % of droplets ([4]; 0.5 mg/L, reading time 4 h): 30-50% of droplets | Growth in % of droplets ([4]; 1 mg/L, reading time 4 h): 20-30% of droplets | Growth in % of droplets ([4]; 1 mg/L, reading time 6 h): 30-50% of droplets | Growth in droplets (observation in words) ([4]; 2 mg/L, reading time 4 h): No growth | Growth in droplets (observation in words) ([4]; 2 mg/L, reading time 6 h): Limited growth in few | Growth in droplets (observation in words) ([4]; 4 mg/L, reading time 4 h): No growth | Growth in droplets (observation in words) ([4]; 4 mg/L, reading time 6 h): No growth | Growth in droplets (observation in words) ([4]; 8 mg/L, reading time 4 h): No growth | MIC [4, 6]: 2 to 4 µg/mL (≈ 6.19 to 12.4 µM)

OC(Cn1cncn1)(Cn1cncn1)c1ccc(F)cc1F [Fluconazole]
Expected MIC (CLSI) (C. albicans ATCC®24433™ [2]): 0.25 to 1 µg/mL | Growth in % of droplets (C. albicans ATCC®24433™ [3]; 1 mg/L, reading time 6 h): Growth in 15-20% | Growth in % of droplets (C. albicans ATCC®24433™ [3]; 2 mg/L, reading time 4 h): Growth in 15-20% | Growth in % of droplets (C. albicans ATCC®24433™ [3]; 2 mg/L, reading time 6 h): Growth in 15-20% | Growth in % of droplets (C. albicans ATCC®24433™ [3]; 4 mg/L, reading time 4 h): ~15% of droplets | Growth in % of droplets (C. albicans ATCC®24433™ [3]; 4 mg/L, reading time 6 h): Growth in 15-20% | Growth in droplets (observation in words) (C. albicans ATCC®24433™ [3]; 8 mg/L, reading time 4 h): Limited growth | Growth in droplets (observation in words) (C. albicans ATCC®24433™ [3]; 8 mg/L, reading time 6 h): Limited growth | Growth in droplets (observation in words) (C. albicans ATCC®24433™ [3]; 16 mg/L, reading time 4 h): Limited growth | Growth in droplets (observation in words) (C. albicans ATCC®24433™ [3]; 16 mg/L, reading time 6 h): Limited growth | Growth in droplets (observation in words) (C. albicans ATCC®24433™ [3]; 32 mg/L, reading time 4 h): Limited growth | Growth in droplets (observation in words) (C. albicans ATCC®24433™ [3]; 32 mg/L, reading time 6 h): Limited growth | Growth in droplets (observation in words) (C. albicans ATCC®24433™ [3]; 64 mg/L, reading time 4 h): Limited growth | Growth in droplets (observation in words) (C. albicans ATCC®24433™ [3]; 64 mg/L, reading time 6 h): Limited growth

CCn1cc(C(=O)O)c(=O)c2ccc(C)nc21 [Nalidixic acid]
Expected MIC (CLSI) (E. coli ATCC®25922): 1 to 4 µg/mL | Growth in % of droplets ([4]; 1 mg/L, reading time 6 h): Growth in about 50% of | Growth in droplets (observation in words) ([4]; 2 mg/L, reading time 6 h): One or few small | Growth in droplets (observation in words) ([4]; 4 mg/L, reading time 4 h): One or few small | Growth in droplets (observation in words) ([4]; 4 mg/L, reading time 6 h): No growth | MIC ([4]; ATCC25922, 6 h, read-out: Observed MIC): 4 µg/mL (≈ 17.2 µM)

CCN1CCN(C(=O)N[C@@H](C(=O)N[C@@H]2C(=O)N3[C@@H]2SC(C)(C)[C@@H]3C(=O)O)c2ccccc2)C(=O)C1=O [Piperacillin]
Expected MIC (CLSI) (E. coli ATCC®25922): 1 to 4 µg/mL | Growth in droplets (observation in words) ([4]; 1 mg/L, reading time 4 h): Limited growth in droplets with cells forming filaments | Growth in droplets (observation in words) ([4]; 2 mg/L, reading time 4 h): No growth | MIC [4, 6]: 2 µg/mL (≈ 3.86 µM)

CN(C)[C@@H]1C(O)=C(C(N)=O)C(=O)[C@@]2(O)C(O)=C3C(=O)c4c(O)cccc4[C@@](C)(O)[C@H]3C[C@@H]12 [Tetracycline]
Growth in % of droplets ([4]; 0.25 mg/L, reading time 6 h): Growth in 20-30% of | MIC [4, 6]: 0.5 µg/mL (≈ 1.13 µM)

COc1cc(Cc2cnc(N)nc2N)cc(OC)c1OC [Trimethoprim]
Expected MIC (CLSI) (E. coli ATCC®25922): 0.5 to 2 µg/mL | Growth in droplets (observation in words) ([4]; 0.125 mg/L, reading time 4 h): Limited growth in few | Growth in droplets (observation in words) ([4]; 0.25 mg/L, reading time 4 h): Limited growth in few | Growth in % of droplets ([4]; 0.25 mg/L, reading time 6 h): Growth in 20-30% of | Growth in droplets (observation in words) ([4]; 0.5 mg/L, reading time 4 h): One or few small | Growth in droplets (observation in words) ([4]; 0.5 mg/L, reading time 6 h): Limited growth in few | Growth in droplets (observation in words) ([4]; 1 mg/L, reading time 4 h): No growth | Growth in droplets (observation in words) ([4]; 1 mg/L, reading time 6 h): Limited growth in few | Growth in droplets (observation in words) ([4]; 2 mg/L, reading time 4 h): No growth | Growth in droplets (observation in words) ([4]; 2 mg/L, reading time 6 h): No growth (one small | MIC ([4]; ATCC25922, reading time 4 h, read-out: Observed MIC (4 h)): 1 µg/mL (≈ 3.44 µM) | MIC ([4]; ATCC25922, reading time 6 h, read-out: Observed MIC (6 h)): 2 µg/mL (≈ 6.89 µM)

O=C1OC2(c3cc(I)c(O)c(I)c3Oc3c2cc(I)c(O)c3I)c2c(Cl)c(Cl)c(Cl)c(Cl)c21 [rose bengal, 4,5,6,7-tetrachloro-2′,4′,5′,7′-tetraiodofluorescein]
Mold growth outside the aqueous phase [5]: the hyphae spreading was inhibited and mold growth was confined within the droplet; also recorded: inhibition of mold growth outside the aqueous phase

Colistin
Expected MIC (CLSI) (E. coli ATCC®25922): 0.5 to 2 µg/mL | Growth in % of droplets ([4]; 0.125 mg/L, reading time 4 h): Growth in 10-20% of | Growth in droplets (observation in words) ([4]; 0.25 mg/L, reading time 4 h): Limited growth in few | Growth in % of droplets ([4]; 0.25 mg/L, reading time 6 h): Growth in 20-30% of | Growth in droplets (observation in words) ([4]; 0.5 mg/L, reading time 4 h): Growth in 1 droplet | Growth in droplets (observation in words) ([4]; 1 mg/L, reading time 6 h): No growth | Observed MIC [4, 7]: 1 µg/mL

Fibrinogen
Labeling (fluorescence) (MSSA ATCC 29213; [8]): Fluo ++ | Labeling (fluorescence) (MSSA ATCC 29213; [9]): BN (+) | Labeling (fluorescence) (MSSA ATCC 29213; [10]): Fluo +++ | Labeling (fluorescence) (MSSA ATCC 29213; [11]): BN (+) | Labeling (fluorescence) (MSSA ATCC 6538; [8]): Fluo +++ | Labeling (fluorescence) (MSSA ATCC 6538; [9]): BN (+) | Labeling (fluorescence) (MSSA ATCC 6538; [10]): Fluo +++ | Labeling (fluorescence) (MSSA ATCC 6538; [11]): BN (+) | Labeling (fluorescence) (MRSA ATCC 49476; [8]): Fluo +++ | Labeling (fluorescence) (MRSA ATCC 49476; [10]): Fluo +++ | Labeling (fluorescence) (MRSA ATCC 49476; [11]): Fluo +++ | Labeling (fluorescence) (MRSA ATCC BAA 2312; [8]): BN (+) | Labeling (fluorescence) (MRSA ATCC BAA 2312; [9]): BN (+) | Labeling (fluorescence) (MRSA ATCC BAA 2312; [10]): Fluo +++ | Labeling (fluorescence) (MRSA ATCC BAA 2312; [11]): Fluo +++

Gentamycin
Expected MIC (CLSI) (E. coli ATCC®25922): 0.25 to 1 µg/mL | Growth in % of droplets ([4]; 0.125 mg/L, reading time 4 h): ~50% of the droplets | Growth in % of droplets ([4]; 0.25 mg/L, reading time 4 h): 30-50% of droplets | Growth in % of droplets ([4]; 0.5 mg/L, reading time 4 h): ~30% of droplets | Growth in % of droplets ([4]; 0.5 mg/L, reading time 6 h): 30-50% of droplets | Growth in droplets (observation in words) ([4]; 2 mg/L, reading time 4 h): No growth | Growth in droplets (observation in words) ([4]; 2 mg/L, reading time 6 h): No growth | Observed MIC [4, 7]: 2 µg/mL
